Columns and labels:
Format in all cases: functional, organism-based
[1] = tested on: Sclerotinia sclerotiorum; test: Antifungal activity against Sclerotinia sclerotiorum after 4 days
[2] = tested on: Stromatinia cepivora; test: Antifungal activity against Sclerotium cepivorum after 4 days
[3] = tested on: Fusarium oxysporum f. sp. dianthi; test: Antifungal activity against Fusarium oxysporum f. sp. dianthi after 4 days

EC50 [1] [uL/L] | EC50 [2] [uL/L] | EC50 [3] [uL/L] | SMILES
549.62 | > 1500 | > 1500 | C=CC(C)(CCC=C(C)C)OC(C)=O (stereo unspecified) [LINALYL ACETATE]
146.15 | 563.94 | 661.76 | C=CC(C)(O)CCC=C(C)C (stereo unspecified) [LINALOOL]

— ChEMBL document CHEMBL3044842, “Composition and antifungal activity on soil-borne pathogens of the essential oil of Salvia sclarea from Greece” (J Agric Food Chem, 2002)
